Data taken from ChEMBL document CHEMBL1134210, “Synthesis and biological activities of potential metabolites of the non-nucleoside reverse transcriptase inhibitor efavirenz” (Bioorg Med Chem Lett, 2001).

Key:
[1] = tested on: Nucleic Acid; assay: Inhibitory activity against RNA; type: functional
[2] = target: Human immunodeficiency virus type 1 reverse transcriptase (Human immunodeficiency virus 1, UniProt Q72547); assay: Inhibitory activity against HIV-1 reverse transcriptase

IC90 [1] [nM] | IC50 [2] [nM] | SMILES
1010 | 12500 | O=C1Nc2c(OS(=O)(=O)O)cc(Cl)cc2[C@@](C#CC2CC2)(C(F)(F)F)O1.c1ccncc1
63 | 2340 | O=C1Nc2c(O)cc(Cl)cc2[C@@](C#CC2CC2)(C(F)(F)F)O1

Further lines, the molecule ahead of its results:

SMILES | IC90 [1] [nM] | IC50 [2] [nM]
O=C1Nc2ccc(Cl)cc2C(C#CC2(O)CC2)(C(F)(F)F)O1 (stereo not drawn) | 33 | 1980
O=C1Nc2c(O)cc(Cl)cc2C(C#CC2CC2)(C(F)(F)F)O1 (single isomer, unassigned) | > 1510 | > 12500
O=C1Nc2c(O[C@@H]3O[C@H](C(=O)O)[C@@H](O)[C@H](O)[C@H]3O)cc(Cl)cc2[C@@](C#CC2CC2)(C(F)(F)F)O1 | > 985 | 9490
O=C1Nc2cc(O)c(Cl)cc2C(C#CC2CC2)(C(F)(F)F)O1 (stereo not drawn) | 422 | 2450
O=C1Nc2ccc(Cl)cc2[C@@](C#CC2CC2)(C(F)(F)F)O1 | 1.7 | 
